Publication PMC3429506, “Screening for Novel LRRK2 Inhibitors Using a High-Throughput TR-FRET Cellular Assay for LRRK2 Ser935 Phosphorylation” (PLoS ONE, 2012)
“And” between values parts separate entries of the source, which are not always exact repeats. Equal entries are not always repeated. Where two headings read alike, the source gives them in different places.

Columns and labels:
[1] = biological target: T1, LRRK2 G2019S (Homo sapiens, UniProt Q5S007, G2019S); test: TR-FRET cellular assay for LRRK2 Ser935 phosphorylation, SH-SY5Y cells, BacMam LRRK2-GFP G2019S (incl. Tocriscreen Mini library screen and follow-up); format: cell-based; parameters: This high-throughput assay utilizes cells expressing full-length human LRRK2 with a C-terminal GFP tag (LRRK2-GFP); host or cells: SH-SY5Y cells transduced with BacMam; conditions: for %Inhibition Initial screen / dephosphorylation of Ser935 in library screen: 20 µM; for Cellular TR-FRET Assay Max % Inhibition / IC50: dose-response follow-up; for Cellular TR-FRET Assay Max % Inhibition: 90 min; for IC50: three independent experiments, read-out: Cellular TR-FRET Assay IC50 +/-SD; for dephosphorylation of Ser935 in library screen: Tocriscreen library
T1 sequence (Q5S007 whole entry G2019S): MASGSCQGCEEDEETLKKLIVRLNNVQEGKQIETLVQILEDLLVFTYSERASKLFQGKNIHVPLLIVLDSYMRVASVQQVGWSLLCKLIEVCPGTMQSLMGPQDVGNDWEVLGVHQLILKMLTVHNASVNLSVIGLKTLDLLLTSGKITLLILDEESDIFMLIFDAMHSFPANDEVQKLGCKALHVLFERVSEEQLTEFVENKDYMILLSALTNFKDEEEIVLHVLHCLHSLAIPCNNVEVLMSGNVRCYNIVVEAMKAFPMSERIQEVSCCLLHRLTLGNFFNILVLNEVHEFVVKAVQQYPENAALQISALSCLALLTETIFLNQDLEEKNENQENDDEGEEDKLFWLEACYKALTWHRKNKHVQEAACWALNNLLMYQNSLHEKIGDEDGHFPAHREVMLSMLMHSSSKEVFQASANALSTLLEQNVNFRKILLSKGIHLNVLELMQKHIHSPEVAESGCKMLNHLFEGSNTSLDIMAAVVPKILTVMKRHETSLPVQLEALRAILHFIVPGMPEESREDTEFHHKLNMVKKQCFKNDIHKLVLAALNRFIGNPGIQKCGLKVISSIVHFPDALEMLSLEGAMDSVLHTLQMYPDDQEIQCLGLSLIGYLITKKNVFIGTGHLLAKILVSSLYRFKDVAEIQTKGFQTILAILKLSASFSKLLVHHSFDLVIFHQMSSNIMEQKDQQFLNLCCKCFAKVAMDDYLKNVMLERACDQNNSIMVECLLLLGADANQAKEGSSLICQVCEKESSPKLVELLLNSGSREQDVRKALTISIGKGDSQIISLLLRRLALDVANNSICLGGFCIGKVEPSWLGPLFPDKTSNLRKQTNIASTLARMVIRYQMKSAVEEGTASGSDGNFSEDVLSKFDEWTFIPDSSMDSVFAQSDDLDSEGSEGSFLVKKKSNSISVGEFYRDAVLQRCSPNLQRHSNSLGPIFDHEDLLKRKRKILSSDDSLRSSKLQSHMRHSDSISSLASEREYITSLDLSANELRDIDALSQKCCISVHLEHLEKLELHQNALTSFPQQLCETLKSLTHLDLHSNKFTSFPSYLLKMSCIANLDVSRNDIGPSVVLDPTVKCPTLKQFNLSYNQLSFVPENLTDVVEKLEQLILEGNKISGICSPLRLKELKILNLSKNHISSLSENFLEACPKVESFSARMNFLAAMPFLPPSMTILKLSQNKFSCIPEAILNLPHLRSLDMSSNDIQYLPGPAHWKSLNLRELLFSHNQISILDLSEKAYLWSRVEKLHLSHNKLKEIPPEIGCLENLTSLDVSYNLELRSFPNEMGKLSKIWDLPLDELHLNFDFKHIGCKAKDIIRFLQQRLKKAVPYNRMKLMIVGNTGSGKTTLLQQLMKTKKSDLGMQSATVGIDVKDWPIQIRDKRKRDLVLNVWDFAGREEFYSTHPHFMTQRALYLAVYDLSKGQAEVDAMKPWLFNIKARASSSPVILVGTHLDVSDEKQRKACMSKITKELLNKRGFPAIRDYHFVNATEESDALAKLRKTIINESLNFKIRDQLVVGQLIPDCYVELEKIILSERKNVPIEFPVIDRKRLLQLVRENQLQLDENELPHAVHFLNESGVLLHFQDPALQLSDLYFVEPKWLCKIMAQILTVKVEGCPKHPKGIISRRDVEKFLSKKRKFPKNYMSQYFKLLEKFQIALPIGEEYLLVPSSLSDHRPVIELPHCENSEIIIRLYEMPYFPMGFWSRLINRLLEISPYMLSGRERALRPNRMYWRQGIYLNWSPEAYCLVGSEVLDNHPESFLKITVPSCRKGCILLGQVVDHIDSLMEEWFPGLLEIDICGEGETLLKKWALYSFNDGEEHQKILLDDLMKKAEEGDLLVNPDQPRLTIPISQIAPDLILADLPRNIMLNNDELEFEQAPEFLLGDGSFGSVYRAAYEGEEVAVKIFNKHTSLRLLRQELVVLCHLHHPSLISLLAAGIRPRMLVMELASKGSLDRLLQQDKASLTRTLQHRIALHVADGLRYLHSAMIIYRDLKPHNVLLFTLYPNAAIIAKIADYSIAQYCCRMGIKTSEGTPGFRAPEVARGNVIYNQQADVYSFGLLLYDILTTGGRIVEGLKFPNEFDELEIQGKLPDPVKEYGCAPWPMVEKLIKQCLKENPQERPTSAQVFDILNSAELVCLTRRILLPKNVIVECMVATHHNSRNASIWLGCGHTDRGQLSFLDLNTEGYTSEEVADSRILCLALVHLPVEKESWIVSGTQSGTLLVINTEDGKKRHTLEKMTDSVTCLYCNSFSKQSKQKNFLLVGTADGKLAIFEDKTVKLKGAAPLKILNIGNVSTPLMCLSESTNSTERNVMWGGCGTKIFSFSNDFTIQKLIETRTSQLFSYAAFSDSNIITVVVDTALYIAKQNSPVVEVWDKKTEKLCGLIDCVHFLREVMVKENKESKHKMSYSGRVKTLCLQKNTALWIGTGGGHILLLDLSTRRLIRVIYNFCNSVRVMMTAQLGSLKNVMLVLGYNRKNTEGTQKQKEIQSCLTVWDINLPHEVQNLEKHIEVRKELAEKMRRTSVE
Protocol: U-2 OS cells are maintained in growth medium (McCoy’s 5A supplemented with 10% dialyzed FBS (dFBS), 10 mM HEPES, 0.1 mM NEAA, 1 mM Sodium Pyruvate, and 100 U/mL Penicillin/100 µg/mL Streptomycin). HEK293T cells are maintained in DMEM with 10% dFBS, 10 mM HEPES, 0.1 mM NEAA and 100 U/mL Penicillin/100 µg/mL Streptomycin. SH-SY5Y cells are maintained in DMEM/F-12 medium supplemented with 10% dFBS and 100 U/mL Penicillin/100 µg/mL Streptomycin. […] GIBCO® human neural stem cells (hNSCs) were propagated as an adherent culture in StemPro® NSC SFM according to the manufacturer’s recommended protocol (Life Technologies). For BacMam transduction of U-2 OS and HEK293T, cells were harvested, mixed with various amounts of BacMam LRRK2-GFP reagent (v/v) and plated onto 6-well plates. […] Cells were assayed in 384-well format (∼20,000 cells/well) 48 hours post-transduction as above.
Transduced cells in the 384-well assay plate were incubated with indicated inhibitors (5X, 5 µL/well) for 60 to 90 minutes. During this time, 6 X lysis buffer (Life Technologies) was supplemented with 30 nM Tb-labeled anti-LRRK2 pSer935 antibody and both protease and phosphatase inhibitor cocktails (Sigma). The complete 6 X lysis buffer was added to each well (5 µL/well) and the plates were incubated at room temperature in the dark for 2 hours. […] A sigmoidal dose-response equation with varying slope was used to fit the data and generate IC50 values. Z′-factor values were calculated as: Z′-factor = 1 - [(3 × stdevno virus +3 × stdevmaxvirus)/(avgmaxvirus – avgno-virus)]. The IC50 values reported in Table 1 are the averaged numbers from three independent experiments.
40 nL of 10 mM Tocris library compounds in DMSO were dispensed into each well of the assay plate by the ECHO system. Equal volumes of DMSO were dispensed into the control wells. Cells were incubated with compounds for 90 to 120 min prior to cell lysis and detection as described above. The percent inhibition is calculated as: [(average emission ratios of DMSO control wells – average emission ratios of compound wells)/(average emission ratios of DMSO control wells – average emission ratios of LRRK2-IN-1 treated wells)] * 100. For the dose-response follow-up studies, fresh compound DMSO stock solutions were prepared from powder. […] Z′-factor value was calculated as: Z′-factor = 1 - [(3 × stdevLRRK2-IN-1+3 × stdevDMSO)/(avgDMSO – avgLRRK2-IN-1)]. The IC50 values reported in Table 2 are the averaged numbers from three independent experiments for both cellular and biochemical TR-FRET assays and one representative result of two independent experiments for the cytotoxicity assay.

[2] = test system: SH-SY5Y cells expressing LRRK2-GFP G2019S
[3] = test system: SH-SY5Y cells expressing LRRK2-GFP G2019S; test: Cytotoxicity assay (resazurin-based cell viability); conditions: read-out: Cytotoxicity Assay IC50; same conditions as TR-FRET follow-up; one representative of two experiments
[4] = biological target: T1, LRRK2 G2019S; test: In vitro biochemical LRRK2 TR-FRET activity assay; conditions: for IC50: LRRK2 G2019S, ATP 134 µM (Km,app), LRRKtide substrate, three independent experiments, read-out: Biochemical LRRK2 assay IC50 +/- SD; for effect on LRRK2 activity in vitro: result in words
Protocol: The Biochemical LRRK2 TR-FRET activity assay was performed according to the manufacture recommended assay protocol (Life Technologies). […] After incubation at room temperature for 1 hour, the kinase reactions were stopped by addition of 10 µL of 20 mM EDTA and 4 nM Tb-anti-pERM (pLRRKtide) antibody in TR-FRET dilution buffer (Life Technologies). After a 30 minute incubation at room temperature, TR-FRET measurements were obtained on a BMG PHERAstar plate reader using LanthaScreen® filters and settings. A 16 point, 2-fold dilution series of each compound was tested in triplicate at each concentration and assays were also performed in triplicate.

[5] = biological target: T2, GFP-LRRK2 G2019S (Homo sapiens, UniProt Q5S007, G2019S); test: Immunoprecipitation/Western analysis of LRRK2 phosphorylation at Ser910, Ser935, Ser955, Ser973 in HEK293 T-REx GFP-LRRK2 G2019S cells; format: cell-based; conditions: for effect on phosphorylation of Ser910, Ser935, Ser955 and Ser973 (IP-Western): 20 µM, 90 min, HEK293 GFP-LRRK2 G2019S, Figure 6
T2 construct: expressed in transfected cells
T2 sequence (Q5S007 whole entry G2019S): as above
Protocol: (§1) Immunoblot analysis: BacMam LRRK2-GFP transduced U-2 OS or SH-SY5Y cells (10^7 cells) were left untreated or treated with 3 µM LRRK2-IN-I for 90 min. For lysate preparation, the cells were washed once with ice-cold PBS and lysed by addition of ice-cold lysis buffer (20 mM Tris-HCl, pH 7.4, 1% NP-40, 5 mM EDTA, 5 mM NaF, 150 mM NaCl, and 1∶100 of protease and phosphatase inhibitor cocktails). The lysate was cleared of debris by centrifugation. Equal amount of total protein was loaded onto each lane for SDS-PAGE (3–8% Tris Acetate). The proteins were transferred onto nitrocellulose membrane using the iBLOT® dry blotting system (Life Technologies) according to manufacturer’s protocol. The membranes were blocked and incubated with a primary antibody against LRRK2 (Cell Signaling Technologies), followed by incubation with alkaline phosphatase-conjugated secondary antibody (WesternBreeze® chromogenic Kit, Life Technologies). The blot was developed by using the chromogenic BCIP/NBT substrate (WesternBreeze® chromogenic Kit, Life Technologies). […] Two days post induction, cells were treated for 90 minutes in the presence of 20 µM of compound or DMSO vehicle control. Cells were rapidly lysed in ice cold lysis buffer 50 mM Tris/HCl, pH 7.5, 1 mM EGTA, 1 mM EDTA, […] 1 mM sodium orthovanadate, 10 mM sodium beta-glycerolphosphate, 50 mM NaF, 5 mM sodium pyrophosphate, 0.27 M sucrose, 1 mM benzamidine and 2 mM phenylmethanesulphonylfluoride (PMSF) and one tablet each complete protease inhibitor and PhosSTOP phosphatase inhibitor (Roche) and was supplemented with 1% (v/v) Triton X-100. GFP-LRRK2 was immunoprecipitated with GFP nanotrap beads (ChromoTek). Immunecomplexes were washed twice with lysis buffer supplemented with 300 mM NaCl and once with Buffer A (50 mM Tris/HCl, pH 7.5, 50 mM NaCl, 0.1 mM EGTA and 0.1% (v/v) 2-mercaptoethanol, and 0.27 M sucrose).

[6] = biological target: T3, LRRK2 A2016T/G2019S (Homo sapiens, UniProt Q5S007, A2016T/G2019S); test: Immunoprecipitation/Western analysis of LRRK2 phosphorylation in T-REx HEK293 cells expressing inhibitor desensitizing mutant; format: cell-based; conditions: for effect of desensitizing mutation A2016T/G2019S on compound-induced dephosphorylation (IP-Western): 20 µM, Figure 6 IRM
T3 construct: expressed in transfected cells
T3 sequence (Q5S007 whole entry A2016T/G2019S): as the sequence (Q5S007 whole entry G2019S) above, with A2016T counted along it
Protocol: as §1

[7] = Tocriscreen Mini library screen, SH-SY5Y G2019S, relative to LRRK2-IN-1 control

| SMILES | %Inhibition Initial screen [1, 7] | IC50 [2] | Cellular TR-FRET Assay Max % Inhibition ([1]; SH-SY5Y G2019S) | IC50 ([1]; SH-SY5Y G2019S) | IC50 [4] | effect on phosphorylation of Ser910, Ser935, Ser955 and Ser973 (IP-Western) [5] | other results |
| --- | --- | --- | --- | --- | --- | --- | --- |
| O=C(CCCN1CCC2(CC1)C(=O)N(Cc1cccc(F)c1)CN2c1ccccc1)c1ccc(F)cc1.O=C(O)/C=C\C(=O)O [3′-fluorobenzylspiperone maleate] | 53% | – | – | – | – | – | – |
| CC(C)[C@H](CO)Nc1nc(Nc2cc(N)cc(Cl)c2)c2ncn(C(C)C)c2n1 [Aminopurvalanol A] | 56.2% | > 20 µM | 50% | 1.4 µM | – | – | – |
| O=C(O)/C=C\C(=O)O.O=C1/C(=C/c2ccccc2)C[C@@]2(O)[C@H]3Cc4ccc(O)c5c4[C@@]2(CCN3CC2CC2)[C@H]1O5 [BNTX maleate] | – | – | 88% | 4 µM | > 100 µM | moderately reduced phosphorylation of all four residues | IC50 [3]: > 20 µM; effect on LRRK2 activity in vitro [4]: did not repress LRRK2 activity in vitro; %Inhibition Initial screen [1]: 70% and 69.7% |
| O=C(NCCCNc1nc(Nc2cccc(NC(=O)N3CCCC3)c2)ncc1I)c1cccs1 [BX-795] | – | – | – | – | – | inhibited LRRK2 cellular phosphorylation | effect of desensitizing mutation A2016T/G2019S on compound-induced dephosphorylation (IP-Western) [6]: rescued phosphorylation |
| CC(C)(C)c1ccc(S(=O)(=O)/C=C/C#N)cc1 [Bay 11-7085] | 97.5% | > 20 µM | 100% | 5.3 µM | > 100 µM | moderately reduced phosphorylation of all four residues | effect on LRRK2 activity in vitro [4]: did not repress LRRK2 activity in vitro; effect of desensitizing mutation A2016T/G2019S on compound-induced dephosphorylation (IP-Western) [6]: did not appear to be changed; LRRK2 phosphorylation remaining, % of untreated G2019S ([6]; 293 cells, LRRK2 G2019S/A2016T): 50%; LRRK2 phosphorylation remaining, % of untreated G2019S ([5]; 293 cells, LRRK2 G2019S): 50% |
| Nc1nc(Nc2ccccc2)nc2c1ncn2[C@@H]1O[C@H](CO)[C@@H](O)[C@H]1O [CV1808] | 55% | – | – | – | – | – | – |
| CN(C)CCCn1cc(C2=C(c3c[nH]c4ccccc34)C(=O)NC2=O)c2ccccc21 [GF109203X] | – | – | – | – | – | – | dephosphorylation of Ser935 in library screen ([1]; SH-SY5Y G2019S): did not observe in vivo dephosphorylation of Ser935 |
| O=C(c1ccc(Nc2nccc(-c3cc4ccccc4s3)n2)cc1)N1CCC(N2CCCC2)CC1 [IKK 16] | 81.7% | > 20 µM | 82% | 1.3 µM | 0.05 µM | inhibited phosphorylation of Ser910, Ser935, Ser955 and Ser973 | effect of desensitizing mutation A2016T/G2019S on compound-induced dephosphorylation (IP-Western) [6]: rescued phosphorylation |
| CCc1ccc(OCc2ccccc2C(=O)Nc2ccc3nc(C)cc(N)c3c2)cc1 [JTC 801] | 90.1% | 10 µM | 84% | 9.6 µM | > 100 µM | moderately reduced phosphorylation of all four residues | effect on LRRK2 activity in vitro [4]: did not repress LRRK2 activity in vitro; %Inhibition Initial screen ([1]; Tocriscreen Mini library screen, SH-SY5Y G2019S, relative to LRRK2-IN-1 control, listed as JTC801, 20 µM): 90% |
| O=C1C(Cl)=C(NCCN2CCOCC2)C(=O)c2ncccc21 [NSC 663284] | 59.1% | 2 µM | 45% | 5.8 µM | 0.48 µM | – | – |
| Cn1cc(C2=C(c3cn(CCCSC(=N)N)c4ccccc34)C(=O)NC2=O)c2ccccc21 [Ro31-8220] | – | – | – | – | – | – | dephosphorylation of Ser935 in library screen ([1]; SH-SY5Y G2019S): did not observe in vivo dephosphorylation of Ser935 |
| [O-][S+](c1ccccc1)c1ccc2nnnn2n1 (stereo not shown) [Ro 106-9920] | 69.8% | 20 µM | 76% | 7.6 µM | > 100 µM | – | effect on LRRK2 activity in vitro [4]: did not repress LRRK2 activity in vitro; suppression of LRRK2 phosphorylation on Ser935 ([5]; HEK293 cells): approximately 50% |
| NC(=O)Nc1sc(-c2ccc(F)cc2)cc1C(N)=O [TPCA-1] | 54.8% | – | 50% | 0.1 µM | – | – | IC50 [3]: > 20 µM |
| C[C@@H](N)[C@H]1CC[C@H](C(=O)Nc2ccncc2)CC1 [Y-27632] | 67.3% | > 20 µM | 69% | – | – | – | – |
